Data set [1] is described as follows: AUC in C57BL/6 mouse at 50 mg/kg, po measured upto 24 hrs by LC-MS/MS analysis. It counts as ADME, organism-based. On the set-up: route oral, dose 50 mg/kg, time <=24. Particulars: in vivo.
Data set [2] can be described thus: Half life in C57BL/6 mouse at 50 mg/kg, po measured upto 24 hrs by LC-MS/MS analysis. It counts as ADME, organism-based. The note with it: in vivo.
Data set [3] has as its target T1, Mas-related G-protein coupled receptor member X4 (Homo sapiens, UniProt Q96LA9). Nature of the data set: Antagonist activity at human MRGPRX4 expressed in HEK cells incubated in dark for 1 hr at 37 degree C and then incubated for 30 mins at room temperature in presence of […] bilirubin by HTRF assay. The format is functional, cell-based.
For data set [4], the target named is T1, Mas-related G-protein coupled receptor member X4. Nature of the data set: Antagonist activity at human MRGPRX4 expressed in HEK cells incubated in dark for 1 hr at 37 degree C and then incubated for 30 mins at room temperature in presence of 20 uM of deoxycholic acid by HTRF assay. The format is functional, cell-based.
Data set [5] shares this target. Nature of the data set: Antagonist activity at human MRGPRX4 expressed in HEK cells incubated in dark for 1 hr at 37 degree C and then incubated for 30 mins at room temperature in presence of 50 uM of obeticholic acid by HTRF assay. The format is functional, cell-based.
The target is the same in data set [6]. Nature of the data set: Antagonist activity at human MRGPRX4 expressed in HEK cells incubated in dark for 1 hr at 37 degree C and then incubated for 30 mins at room temperature in presence of 100 uM of conjugated bilirubin by HTRF assay. The format is functional, cell-based.
Data set [7] in a line: Cmax in C57BL/6 mouse at 50 mg/kg, po measured upto 24 hrs by LC-MS/MS analysis. The format is ADME, organism-based. On the set-up: route oral, dose 50 mg/kg, time <=24. The note with it: in vivo.
Data set [8] deals with T1, Mas-related G-protein coupled receptor member X4. Nature of the data set: Antagonist activity at human MRGPRX4 expressed in HEK cells incubated in dark for 1 hr at 37 degree C and then incubated for 30 mins at room temperature in presence of 10 uM of bilirubin by HTRF assay. It counts as functional, cell-based.
Data set [9] shares this target. Nature of the data set: Antagonist activity at human MRGPRX4 expressed in HEK cells incubated in dark for 1 hr at 37 degree C and then incubated for 30 mins at room temperature in presence of 50 uM of urobilin by HTRF assay. The format is functional, cell-based.
A short description of data set [10]: Stability of compound assessed as parent compound remaining after stored for 24 hrs in blue light condition at room temperature by LC-MS/MS analysis. It counts as physicochemical.
The nature of data set [11]: Stability of compound assessed as parent compound remaining after stored for 24 hrs in normal lab light condition at room temperature by LC-MS/MS analysis. The format is physicochemical.
The target in data set [12] is T1, Mas-related G-protein coupled receptor member X4. Nature of the data set: Agonist activity at human MRGPRX4 expressed in HEK cells using preincubated compound in light at room temperature for 24 hrs by HTRF assay. It counts as functional, cell-based.
For data set [13] the target is unchanged. Nature of the data set: Agonist activity at human MRGPRX4 expressed in HEK cells using preincubated compound in dark at room temperature for 24 hrs by HTRF assay. It counts as functional, cell-based.
Data set [14] is described as follows: Stability of compound assessed as parent compound remaining after stored for 24 hrs in dark at room temperature by LC-MS/MS analysis. The format is physicochemical.
Data set [15] can be described thus: Stability of compound assessed as parent compound remaining after stored for 24 hrs in dark freezer condition by LC-MS/MS analysis. The format is physicochemical. Particulars: read-out: Stabilty.
Data set [16] has as its target T1, Mas-related G-protein coupled receptor member X4. Nature of the data set: Agonist activity at human MRGPRX4 expressed in HEK cells using preincubated compound in dark freezer condition for 24 hrs by HTRF assay. Particulars: filed as agonist. The format is functional, cell-based.
Data set [17] has the same target. Nature of the data set: Agonist activity at human MRGPRX4 expressed in HEK cells using preincubated compound in blue light at room temperature for 24 hrs by HTRF assay. The format is functional, cell-based.

Calls of active or inactive are those of the source. The rule behind the calls is not given here.

The text below walks through data of ChEMBL document CHEMBL4806969, “Modulators of mas-related g-protein receptor x4 and related products and methods” (2020).

T1 sequence (Q96LA9 whole entry): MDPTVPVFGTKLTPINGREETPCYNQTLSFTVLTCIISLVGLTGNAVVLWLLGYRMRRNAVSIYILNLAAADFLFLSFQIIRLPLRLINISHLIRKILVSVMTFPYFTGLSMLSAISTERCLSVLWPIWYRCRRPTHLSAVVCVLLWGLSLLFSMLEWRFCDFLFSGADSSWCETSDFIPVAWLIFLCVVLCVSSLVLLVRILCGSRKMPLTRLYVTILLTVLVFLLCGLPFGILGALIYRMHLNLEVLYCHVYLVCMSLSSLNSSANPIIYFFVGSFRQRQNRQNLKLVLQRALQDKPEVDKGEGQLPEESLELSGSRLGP

In [1], `Cc1cc(COc2ccc(C(F)(F)F)cc2C)cc(C(=O)O)c1` showed an AUC at 24 h of 572 µM·h. The half-life in [2] is 3.6 h. For the same compound, in data set [3], the IC50 was less than 100 nM.
For `O=C(O)c1cc(F)cc(COc2ccc(C(F)(F)F)cc2Cl)c1`, in data set [1], the AUC at 24 h came to 1040 µM·h. For the same compound, the half-life in [2] is 4.8 h. In addition, the half-inhibitory concentration (IC50) in data set [3] is less than 100 nM.
The corresponding values for `O=C(O)c1cccc(COc2ccc(C(F)(F)F)cc2Cl)c1F` are 2150 µM·h, 11.2 h and less than 100 nM.
`O=C(O)c1cccc(COc2ccc(Cl)cc2Cl)c1`: the AUC at 24 h in data set [1] came out at 376 µM·h. Further, the half-life in data set [2] is 4.2 h. The values for the 50% inhibitory concentration (IC50) in [4] and in [3] were 130 nM and less than 100 nM, respectively.
The compound `O=C(O)c1cccc(COc2ccc(C(F)(F)F)cc2Cl)n1` gave an AUC at 24 h in [1] of 880 µM·h. In data set [2], the half-life is 3.2 h. Besides, in [3], the IC50 is less than 100 nM.
Turning to `N#Cc1cc(COc2ccc(Cl)cc2Cl)cc(C(=O)O)c1`, the half-inhibitory concentration (IC50) in [5] was 6 nM; in data set [3], less than 100 nM.
For the compound `O=C(O)c1cccc(COc2ccc(Cl)cc2Cl)n1`, the area under the curve (AUC) at 24 h in [1] turned out to be 1210 µM·h. The compound also had a half-life in data set [2] of 3 h. Also, the IC50 in [3] is less than 100 nM.
Compound `CCc1cc(COc2ccc(C(F)(F)F)cc2Cl)nc(C(=O)O)c1` registered an AUC at 24 h in data set [1] of 4700 µM·h. Also, the half-life in data set [2] was 5.4 h. Moreover, the IC50 is 16 nM in data set [4] and less than 100 nM in data set [3].
Taken in the same sequence, the figures for `O=C(O)c1cccc(COc2ccc(C(F)(F)F)cc2Cl)c1` were 615 µM·h, 4.6 h, 46 nM and less than 100 nM.
`Cc1cc(C(F)(F)F)ccc1OCc1cccc(C(=O)O)c1F` returned an AUC at 24 h in data set [1] of 1200 µM·h. Besides, the IC50 was 22 nM in [5]; 12 nM in [6]; 75 nM in [4]; 17 nM in data set [8]; less than 100 nM in [3]. The compound also showed a half-life in data set [2] of 4.8 h. For the same compound, in data set [7], the peak concentration (Cmax) worked out at 230 µM.
In the case of `O=C(O)c1cccc(COc2ccc(Cl)cc2Cl)c1F`, the area under the curve (AUC) at 24 h in data set [1] was 1500 µM·h. For the same compound, the half-life in data set [2] is 5.9 h. Also, in data set [3], the IC50 is less than 100 nM.
Taken in the same sequence, the figures for `Cc1cc(COc2ccc(C(F)(F)F)cc2Cl)cc(C(=O)O)c1` were 974 µM·h, 4.6 h and less than 100 nM.
Consider `Clc1ccc(OCc2cccc(-c3nnn[nH]3)c2)c(Cl)c1Cl`, for which the figures for the half-maximal inhibitory concentration (IC50) in data set [9] and in data set [3] were 6 nM and less than 100 nM, respectively.
As for `O=C(O)c1cccc(COc2ccc(Cl)c(Cl)c2Cl)c1`, the AUC at 24 h in [1] was determined as 219 µM·h. This compound had a half-life in [2] of 4 h. The IC50 in data set [4] was 24 nM; in data set [3] it was less than 100 nM.
`O=C(O)c1cccc(COc2ccc(Cl)cc2C(F)(F)F)n1`: the 50% inhibitory concentration (IC50) in data set [5] was 5 nM; in data set [3], less than 100 nM.
Compound `O=C(O)c1cc(COc2ccc(C(F)(F)F)cc2Cl)ccc1F` registered an AUC at 24 h in data set [1] of 1070 µM·h. The same compound showed a half-life in data set [2] of 4.7 h. Moreover, the IC50 in [3] was less than 100 nM.
In the case of `C=CC1=C(C)/C(=C/c2[nH]c(Cc3[nH]c(/C=C4\NC(=O)C(C)=C4C=C)c(C)c3CCC(=O)O)c(CCC(=O)O)c2C)NC1=O` [BILIRUBIN], the Stabilty result in [10], in [11] and in data set [14] was “Unstable” in each case. Further, the result in [12], in data set [13] and in data set [17] was inactive. In data set [15], the remaining at 24 h amounted to 44%. Further, in [16], the result was Active.
`O=C(O)c1cccc(COc2ccc3c(c2)CCC3=O)c1`: in data set [3], the IC50 was greater than 2500 nM.
